# Test results as given in PubChem BioAssay (NCI).
# Values joined by “and” are separate entries in the source; they are usually repeats but may differ in a detail not shown here. Identical values can stand only once.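 Cells were grown in 96-well plates and exposed to each compound for 48 hours at five concentrations; endpoints were interpolated linearly between bracketing concentrations, or set to the highest concentration if not reached. GI50: concentration for 50% inhibition of growth. The concentration for full growth arrest is given as TGI.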
# Columns and labels:
# Assay in all cases: DTP human tumour cell line panel, 48 h
# CCRF-CEM leukemia = system: CCRF-CEM leukemia
# NCI-H460 lung = system: NCI-H460 lung
# NCI-H522 lung = system: NCI-H522 lung
# U251 CNS = system: U251 CNS
# SN12C renal = system: SN12C renal
# DLD-1 colon = system: DLD-1 colon
# OVCAR-4 ovarian = system: OVCAR-4 ovarian
# SR leukemia = system: SR leukemia
# DU-145 prostate = system: DU-145 prostate
# MDA-MB-231 breast = system: MDA-MB-231 breast
SMILES,TGI (CCRF-CEM leukemia),TGI (NCI-H460 lung),TGI (NCI-H522 lung),TGI (U251 CNS),TGI (SN12C renal),GI50 (DLD-1 colon),TGI (DLD-1 colon),TGI (OVCAR-4 ovarian),TGI (SR leukemia),TGI (DU-145 prostate),TGI (MDA-MB-231 breast),GI50 (U251 CNS),GI50 (DU-145 prostate),GI50 (OVCAR-4 ovarian),GI50 (MDA-MB-231 breast),GI50 (SR leukemia)
N.N.N.O=[N+]([O-])[O-].O=[N+]([O-])[O-].O=[N+]([O-])[O-].O=[N+]([O-])[O-].[Co+3],> 100 µM,> 100 µM,> 100 µM,> 100 µM,> 100 µM,> 100 µM,> 100 µM,> 100 µM,,,,,,,,
C=C(C(=O)C(=O)Oc1ccc(Cl)cc1)C(=O)c1ccc(C)cc1,> 100 µM,> 100 µM,40 µM,46.2 µM,> 100 µM,,99.3 µM,> 100 µM,57.6 µM,,,,,,,
CC1=C(O)C(=O)[C@@H]2O[C@@H]2C1=O,8.09 µM,47.4 µM,4.56 µM,46.3 µM,52.4 µM,,21.7 µM,28.5 µM,,,,,,,,
COc1cc(/C=C2/C(=O)N(C(=O)c3ccccc3O)N=C2C)cc(OC)c1OC,> 100 µM,> 100 µM,33.4 µM,> 100 µM,> 91.2 µM,,> 100 µM,> 100 µM,,> 100 µM,> 100 µM,,,,,
C#CCCCCC#Cc1ccccc1C(=O)OC,32.4 µM,> 100 µM,,> 100 µM,> 100 µM,,> 100 µM,> 100 µM,29.2 µM,,,,,,,
COc1ccc(C(C#N)NNC(=O)c2ccccc2O)cc1OC (centres undefined),> 100 µM,> 100 µM,30.1 µM,> 100 µM,> 100 µM,,> 100 µM,> 100 µM,> 100 µM,,,,,,,
O=c1[nH]n2c(=O)cc[nH]c2c1-c1nnns1,> 100 µM,> 100 µM,> 100 µM,> 100 µM,> 100 µM,,> 100 µM,> 100 µM,> 100 µM,,,,,,,
Brc1ccc(CCNCCN2CCCCC2)cc1,> 100 µM,27.8 µM,30.3 µM,32.4 µM,58.5 µM,,,48.1 µM,> 100 µM,> 100 µM,21.4 µM,,,,,
C/C(CCOC1CCCCO1)=C(\C)[Si](C)(C)C (centres undefined),> 100 µM,> 100 µM,> 100 µM,> 100 µM,> 100 µM,,> 100 µM,,> 100 µM,,,,,,,
CC1(C)CC(/C=C2/OC(=O)c3ccccc32)=C(C#N)C(=O)O1,> 100 µM,> 100 µM,> 100 µM,> 100 µM,> 100 µM,,> 100 µM,> 100 µM,> 100 µM,,,,,,,
O=C(Nc1ccc(Br)cc1)c1c(-c2ccccc2)c2ccc(O)cc2oc1=O,> 10 µM,> 10 µM,> 10 µM,> 10 µM,> 10 µM,,,> 10 µM,> 10 µM,> 10 µM,> 10 µM,,,,,
CN(CCC#N)c1ccc(/C=C2\SC(=S)NC2=O)cc1,> 100 µM,> 100 µM,> 100 µM,> 100 µM,> 100 µM,,,> 100 µM,> 100 µM,> 100 µM,> 100 µM,,,,,
COCOC1/C=C/CCCC#C[C@H](C)C(=O)CC1 (some centres undefined),8.46 µM,25.5 µM,18.1 µM,24.8 µM,23.6 µM,,,22.3 µM,> 33.2 µM,28 µM,17 µM,,,,,
CCOC(=O)CNC(=O)C(CSCc1ccc(Br)cc1)NC(=O)CCC(N)C(=O)OCC (centres undefined),> 50 µM,> 50 µM,> 50 µM,> 50 µM,> 50 µM,,,> 50 µM,> 50 µM,> 50 µM,> 50 µM,,,,,
CC(=O)OCC1OC(OC(C)(C)CC/C=C(\C)[C@@H]2C/C=C(\C)CC/C=C(\C)CC2)C(O)C(O)C1OC(C)=O (some centres undefined),20.8 µM and 67 µM,35.3 µM and 61.8 µM,28.8 µM and 37.4 µM,> 100 µM,> 94.1 µM and 41.2 µM,,,> 100 µM and 32.1 µM,> 100 µM,> 100 µM and 32.1 µM,> 100 µM and 38.6 µM,39.3 µM,> 76.3 µM and 17 µM,> 58.7 µM and 16.2 µM,> 61.2 µM and 18.9 µM,36.3 µM and > 100 µM
CC(CN1c2ccccc2Sc2ccccc21)N(C)C (centres undefined),40.1 µM,36 µM,36.3 µM,27.7 µM,29.1 µM,,,32.5 µM,40.9 µM,34.9 µM,32.4 µM,,,,,
COCCOCOc1ccc(OCc2ccccc2)cc1,> 100 µM,> 100 µM,,> 100 µM,> 100 µM,,> 100 µM,> 51 µM,,,,,,,,
